Experimental data reported in paper PMC4770593, “Efficient microbial production of stylopine using a Pichia pastoris expression system” (Scientific Reports, 2016).

Key:
Test in all cases: LC-MS of product formed by Pichia cells expressing the enzyme
Format in all cases: cell-based
[1] = target: T1, BBE (EcBBE), berberine bridge enzyme (Eschscholzia californica, UniProt P30986); conditions: in vivo reaction, BMMY medium pH 6.0, 30 °C, 24 h; racemic substrate; vector control
T1 construct: gene BBE1; codon-optimized synthetic gene in pPIC3.5/pPIC3.5K; expressed in Pichia pastoris GS115; whole cells
T1 sequence (P30986 24-538): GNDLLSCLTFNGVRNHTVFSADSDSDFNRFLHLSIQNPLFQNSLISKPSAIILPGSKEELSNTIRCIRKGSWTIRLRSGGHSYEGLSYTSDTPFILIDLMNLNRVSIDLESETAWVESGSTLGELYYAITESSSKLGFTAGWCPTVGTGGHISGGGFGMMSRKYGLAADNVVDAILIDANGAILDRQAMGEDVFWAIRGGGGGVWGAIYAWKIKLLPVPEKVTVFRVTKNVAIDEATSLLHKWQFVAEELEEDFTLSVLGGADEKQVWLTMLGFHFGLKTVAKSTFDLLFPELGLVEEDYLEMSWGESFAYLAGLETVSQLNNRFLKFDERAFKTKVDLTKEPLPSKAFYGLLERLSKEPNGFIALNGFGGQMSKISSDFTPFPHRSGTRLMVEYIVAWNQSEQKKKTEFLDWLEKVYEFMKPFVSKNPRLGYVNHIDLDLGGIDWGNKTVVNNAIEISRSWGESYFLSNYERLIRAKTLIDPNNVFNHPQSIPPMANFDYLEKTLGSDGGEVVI

[2] = target: T2, CYP719A5 (EcCYP719A5), cheilanthifoline synthase (Eschscholzia californica, UniProt B5UAQ8); conditions: in vivo reaction, BMMY medium pH 6.0, 30 °C, 24 h; vector control
T2 construct: codon-optimized synthetic gene in pPIC3.5/pPIC3.5K; expressed in Pichia pastoris GS115; whole cells, endogenous yeast reductase (no plant CPR)
T2 sequence (B5UAQ8 whole entry): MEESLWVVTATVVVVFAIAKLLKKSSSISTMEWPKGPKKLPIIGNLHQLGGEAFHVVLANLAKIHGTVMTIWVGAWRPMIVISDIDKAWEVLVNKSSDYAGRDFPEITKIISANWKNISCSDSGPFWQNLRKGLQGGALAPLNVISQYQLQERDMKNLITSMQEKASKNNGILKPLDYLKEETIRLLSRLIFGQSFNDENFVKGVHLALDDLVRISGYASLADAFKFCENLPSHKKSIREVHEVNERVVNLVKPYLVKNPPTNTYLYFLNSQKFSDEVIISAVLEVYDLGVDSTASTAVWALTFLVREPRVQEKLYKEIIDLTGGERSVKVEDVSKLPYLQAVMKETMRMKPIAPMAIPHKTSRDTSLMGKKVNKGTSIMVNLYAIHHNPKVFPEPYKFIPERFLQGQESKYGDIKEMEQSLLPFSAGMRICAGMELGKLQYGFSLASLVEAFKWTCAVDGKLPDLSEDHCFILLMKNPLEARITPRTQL

[3] = target: T3, CYP719A2 (EcCYP719A2), stylopine synthase (Eschscholzia californica, UniProt C3SBS2); conditions: in vivo reaction, BMMY medium pH 6.0, 30 °C, 24 h; substrate supplied as CYP719A5 reaction product; vector control
T3 construct: codon-optimized synthetic gene in pPIC3.5/pPIC3.5K; expressed in Pichia pastoris GS115; whole cells, endogenous yeast reductase (no plant CPR)
T3 sequence (C3SBS2 entry or part of it): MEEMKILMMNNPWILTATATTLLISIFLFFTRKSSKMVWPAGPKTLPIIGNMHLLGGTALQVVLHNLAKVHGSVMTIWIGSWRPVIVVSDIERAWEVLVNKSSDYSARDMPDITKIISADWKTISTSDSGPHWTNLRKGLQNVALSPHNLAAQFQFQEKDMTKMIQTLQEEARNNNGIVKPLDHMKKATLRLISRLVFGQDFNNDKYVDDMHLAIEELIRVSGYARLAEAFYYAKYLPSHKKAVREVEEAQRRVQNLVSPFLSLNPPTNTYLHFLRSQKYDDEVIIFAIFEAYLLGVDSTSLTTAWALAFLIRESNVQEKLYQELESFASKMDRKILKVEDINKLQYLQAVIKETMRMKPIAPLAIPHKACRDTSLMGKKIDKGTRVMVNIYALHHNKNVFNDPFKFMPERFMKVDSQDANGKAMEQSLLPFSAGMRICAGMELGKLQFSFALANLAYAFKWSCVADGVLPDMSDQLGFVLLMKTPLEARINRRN

Structure (SMILES): COc1ccc(CC2c3cc(O)c(OC)cc3CCN2C)cc1O (racemic) [(R, S)-reticuline]
- LC-MS of product formed by Pichia cells expressing the enzyme [1]: reaction products of BBE and CYP719A5 (i.e., scoulerine from reticuline and cheilanthifoline from scoulerine)

Structure (SMILES): COc1cc2c(cc1O)[C@@H]1Cc3ccc(OC)c(O)c3CN1CC2 [(S)-scoulerine]
- LC-MS of product formed by Pichia cells expressing the enzyme [2]: The formation of cheilanthifoline by CYP719A5 from scoulerine was confirmed by the production of stylopine

Structure (SMILES): COc1cc2c(cc1O)[C@@H]1Cc3ccc4c(c3CN1CC2)OCO4 [cheilanthifoline]
- LC-MS of product formed by Pichia cells expressing the enzyme [3]: CYP719A5 reaction product (chielanthifoline) for CYP719A2 reaction
